Test results as given in paper PMC8026774 (Cellular and molecular neurobiology, 2020).

Tests used:
Assay in all cases: radioligand saturation binding, CHO membranes
[1] = target: MOR-1O (untagged) (Mus musculus, UniProt P42866)
[2] = target: MOR-1-PK (Mus musculus, UniProt P42866)
[3] = target: MOR-1 (untagged) (Mus musculus, UniProt P42866)
[4] = target: MOR-TR-PK (Mus musculus, UniProt P42866, DEL387-398)
[5] = target: MOR-1O-PK (Mus musculus, UniProt P42866)

## O=C(N[C@@H]1CC[C@@]2(O)[C@H]3Cc4ccc(O)c5c4[C@@]2(CCN3CC2CC2)[C@H]1O5)c1cccc(I)c1 [[^125I]IBNtxA]
[1]
  Kd: 0.2 ± 0.07 nM
[2]
  Kd: 0.1 ± 0.01 nM
[3]
  Kd: 0.13 ± 0.03 nM
[4]
  Kd: 0.1 ± 0.02 nM
[5]
  Kd: 0.24 ± 0.11 nM
